MIC data for 4 compounds are collected here from patent publication US5804577A, “Cephalosporin derivatives” (Hoffmann-La Roche Inc., priority 1995, dated 1998).

What all share (assay): MIC by agar dilution method in Mueller Hinton agar
What all share (format): cell-based

The subject of one experiment is S. viridans group 016. To be noted: Streptococcus viridans, GROUP016. As for the experimental part:
(§1) In vitro activity was determined by minimum inhibitory concentration in a microorganism spectrum by the agar dilution method in Mueller Hinton agar.

In the next experiment the test system is P. aeruginosa 27853. As to conditions: Pseudomonas aeruginosa. The method, then: as §1
A further experiment has as its system S. marscescens 69438. As for the experimental part:
as §1

The test system of a further experiment is E. cloacae 908SSi. To be noted: Enterobacter cloacae, 908SSI. The method, then: as §1
The test system of a further experiment is P. vulgaris 1028. As to conditions: Proteus vulgaris. The method, then:
as §1

Another experiment has as its system C. difficile ZH1. To be noted: Clostridioides difficile, ZH1. As for the experimental part: as §1
The next experiment relates to S. aureus 6538. To be noted: Staphylococcus aureus, 6538. The method, then:
as §1

A further experiment relates to C. freundii 43. To be noted: Citrobacter freundii, 43. As for the experimental part: as §1
The next experiment relates to H. influenzae 1. To be noted: Haemophilus influenzae. The method, then: as §1
The subject of the next experiment is S. aureus 734 MRSA. As to conditions: Staphylococcus aureus, MRSA. The method, then: as §1
The subject of another experiment is S. pneumoniae Q19. As to conditions: Streptococcus pneumoniae. As for the experimental part:
as §1

For experiment [1], the system named is P. asaccharolyticus 29743. To be noted: Peptoniphilus asaccharolyticus. The method, then:
as §1

A further experiment relates to Acinetobacter sp. 51-156. As to conditions: SP.51156. As for the experimental part:
as §1

In a further experiment the test system is M. catarrhalis RA21. As to conditions: Moraxella catarrhalis. The method, then: as §1
A further experiment has as its system E. cloacae 908R. As to conditions: Enterobacter cloacae. As for the experimental part: as §1
A further experiment has as its system L. monocytogenes BK23. As to conditions: Listeria monocytogenes, BK23. The method, then: as §1
The next experiment relates to S. agalactiae QK44. As to conditions: Streptococcus agalactiae. The method, then: as §1
Another experiment relates to E. faecalis 6. As to conditions: Enterococcus faecalis. The method, then: as §1
The next experiment relates to X. maltophilia 1AC739. As to conditions: Stenotrophomonas maltophilia. The method, then: as §1
Another experiment deals with B. fragilis ATCC25285. To be noted: Bacteroides fragilis. The method, then:
as §1

The next experiment concerns E. coli 25922. As to conditions: Escherichia coli, 25922. As for the experimental part: as §1
For a further experiment, the system named is K. pneumoniae 418. As to conditions: Klebsiella pneumoniae. As for the experimental part:
as §1

A further experiment relates to P. mirabilis 2117. As to conditions: Proteus mirabilis. The method, then:
as §1

The subject of another experiment is C. freundii 902. As to conditions: Citrobacter freundii. The method, then: as §1
The test system of another experiment is M. morganii 6H-137. To be noted: Morganella morganii, 6H137. The method, then: as §1
Setting [2] is: K. pneumoniae 418, read-out: MIC.
[3] abbreviates: P. aeruginosa 27853, read-out: MIC.

≈ marks a conversion by molar mass, not a printed value. Where two headings read alike, the source gives them in different places.

On to `Nc1nc(/C(=N/O)C(=O)N[C@@H]2C(=O)N3C(C(=O)O)=C(/C=C4\CCN(c5ccc(O)cc5)C4=O)CS[C@H]23)cs1` [A, (6R,7R)-7-[(Z)-2-(2-Amino-thiazol-4-yl)-2-hydroxyimino-acetylamino]-3-[(E)-1-(4-hydroxy-phenyl)-2-oxo-pyrrolidin-3-ylidenemethyl]-8-oxo-5-thia-1-azabicyclo[4.2.0]oct-2-ene-2-carboxylic acid], for which the MIC in the experiment with S. viridans group 016 stood at 0.25 µg/mL (≈ 0.449 µM); in the experiment on P. aeruginosa 27853 (27853) it was 4 µg/mL (≈ 7.19 µM); with S. marscescens 69438, 0.5 µg/mL (≈ 0.898 µM); with E. cloacae 908SSi, 0.25 µg/mL (≈ 0.449 µM); with P. vulgaris 1028 (P. vulgaris 1028, read-out: MIC), 32 µg/mL (≈ 57.5 µM); in the experiment on C. difficile ZH1, 8 µg/mL (≈ 14.4 µM). The MIC against S. aureus 6538 was found to be 0.25 µg/mL (≈ 0.449 µM); against C. freundii 43, 4 µg/mL (≈ 7.19 µM); against H. influenzae 1, 0.25 µg/mL (≈ 0.449 µM); with S. aureus 734 MRSA, 4 µg/mL (≈ 7.19 µM); against S. pneumoniae Q19 it was 0.12 µg/mL (≈ 0.216 µM); in [1], 0.25 µg/mL (≈ 0.449 µM). In addition, the MIC in the experiment on Acinetobacter sp. 51-156 (Acinetobacter sp. 51-156, read-out: MIC) came out at 16 µg/mL (≈ 28.7 µM); with M. catarrhalis RA21 (M. catarrhalis RA21, read-out: MIC), 16 µg/mL (≈ 28.7 µM); in the experiment with E. cloacae 908R (E. cloacae 908R, read-out: MIC) it was 16 µg/mL (≈ 28.7 µM); against L. monocytogenes BK23, 4 µg/mL (≈ 7.19 µM); against S. agalactiae QK44 it was 0.25 µg/mL (≈ 0.449 µM); with E. faecalis 6 (6), 0.5 µg/mL (≈ 0.898 µM). Moreover, the MIC is above 32 µg/mL in the experiment with X. maltophilia 1AC739 (X. maltophilia 1AC739, read-out: MIC) and 4 µg/mL (≈ 7.19 µM) in the experiment with B. fragilis ATCC25285 (ATCC25285).
Consider `Nc1nc(/C(=N/O)C(=O)N[C@@H]2C(=O)N3C(C(=O)O)=C(/C=C4\CCN(c5cccc([N+](=O)[O-])c5)C4=O)CS[C@H]23)cs1` [B], for which the MIC was found to be 1 µg/mL (≈ 1.71 µM) with S. viridans group 016; 0.12 µg/mL (≈ 0.205 µM) in the experiment with E. coli 25922; 16 µg/mL (≈ 27.3 µM) against P. aeruginosa 27853 (27853); 1 µg/mL (≈ 1.71 µM) in the experiment on S. marscescens 69438; 0.25 µg/mL (≈ 0.427 µM) in the experiment with K. pneumoniae 418 (setting [2]); 0.25 µg/mL (≈ 0.427 µM) with E. cloacae 908SSi. Further, the MIC stood at 16 µg/mL (≈ 27.3 µM) against P. vulgaris 1028 (1028); 16 µg/mL (≈ 27.3 µM) in the experiment on C. difficile ZH1; 0.25 µg/mL (≈ 0.427 µM) with S. aureus 6538; 1 µg/mL (≈ 1.71 µM) with C. freundii 43; 0.5 µg/mL (≈ 0.854 µM) with H. influenzae 1; 4 µg/mL (≈ 6.83 µM) against S. aureus 734 MRSA. Besides, the MIC against P. mirabilis 2117 (2117) was 0.12 µg/mL (≈ 0.205 µM); in the experiment with Acinetobacter sp. 51-156 (Acinetobacter) it was 16 µg/mL (≈ 27.3 µM); in the experiment with C. freundii 902 (902) it was 0.12 µg/mL (≈ 0.205 µM); in the experiment with M. catarrhalis RA21 (RA21) it was above 16 µg/mL; in the experiment on E. cloacae 908R (908R), 2 µg/mL (≈ 3.42 µM); with L. monocytogenes BK23 it was 4 µg/mL (≈ 6.83 µM). Moreover, the MIC against S. agalactiae QK44 is 0.5 µg/mL (≈ 0.854 µM); with E. faecalis 6 (E. faecalis 6, read-out: MIC), 0.25 µg/mL (≈ 0.427 µM); with X. maltophilia 1AC739 (1AC739) it was above 32 µg/mL; in the experiment with B. fragilis ATCC25285 (ATCC25285) it was 2 µg/mL (≈ 3.42 µM).
As to `Nc1nc(/C(=N/O)C(=O)N[C@@H]2C(=O)N3C(C(=O)O)=C(/C=C4\CCN(Cc5nc6ccccc6[nH]5)C4=O)CS[C@H]23)cs1` [H, (6R,7R)-7-[(Z)-2-(2-Amino-thiazol-4-yl)-2-hydroxyimino-acetylamino]-3-[(E)-1-(1H-benzimidazol-2-ylmethyl)-2-oxo-pyrrolidin-3-ylidenemethyl]-8-oxo-5-thia-1-aza-bicyclo[4.2.0]oct-2-ene-2-carboxylic acid trifluoracetate (1:1:1)], the MIC was 0.25 µg/mL (≈ 0.42 µM) against M. morganii 6H-137; 0.5 µg/mL (≈ 0.841 µM) against S. viridans group 016; 0.12 µg/mL (≈ 0.202 µM) against E. coli 25922; above 32 µg/mL with P. aeruginosa 27853 (setting [3]); 1 µg/mL (≈ 1.68 µM) against S. marscescens 69438; 0.12 µg/mL (≈ 0.202 µM) with K. pneumoniae 418 (setting [2]). The MIC against E. cloacae 908SSi was found to be 0.5 µg/mL (≈ 0.841 µM); in the experiment with P. vulgaris 1028 (1028) it was 16 µg/mL (≈ 26.9 µM); against C. difficile ZH1, 16 µg/mL (≈ 26.9 µM); with S. aureus 6538, 1 µg/mL (≈ 1.68 µM); against C. freundii 43, 2 µg/mL (≈ 3.36 µM); in the experiment with S. aureus 734 MRSA, 8 µg/mL (≈ 13.5 µM). Besides, the MIC in the experiment on P. mirabilis 2117 (P. mirabilis 2117, read-out: MIC) was 0.25 µg/mL (≈ 0.42 µM); in experiment [1], 1 µg/mL (≈ 1.68 µM); against Acinetobacter sp. 51-156 (Acinetobacter), above 32 µg/mL; in the experiment on C. freundii 902 (C. freundii 902, read-out: MIC), 0.12 µg/mL (≈ 0.202 µM); with M. catarrhalis RA21 (RA21), 4 µg/mL (≈ 6.73 µM); in the experiment with E. cloacae 908R (908R), 4 µg/mL (≈ 6.73 µM). Moreover, the MIC with L. monocytogenes BK23 was 4 µg/mL (≈ 6.73 µM); in the experiment on S. agalactiae QK44, 0.25 µg/mL (≈ 0.42 µM); against E. faecalis 6 (6), 2 µg/mL (≈ 3.36 µM); in the experiment on X. maltophilia 1AC739 (1AC739), above 32 µg/mL; with B. fragilis ATCC25285 (B. fragilis ATCC25285, read-out: MIC), 8 µg/mL (≈ 13.5 µM).
On to `C=CC1=C(C(=O)O)N2C(=O)[C@@H](NC(=O)/C(=N\O)c3csc(N)n3)[C@H]2SC1` [I, [6R[6a,7b(Z)]7-(2-Amino-4-thiazolyl)[(hydroxyimino)]acetyl]amino3-ethenyl 8-oxo-5-thia-1-azabicyclo-[4.2.0]oct2-ene-2-carboxylic acid, reference compound], for which the MIC is 8 µg/mL (≈ 20.2 µM) against M. morganii 6H-137; 2 µg/mL (≈ 5.06 µM) against S. viridans group 016; 0.25 µg/mL (≈ 0.632 µM) against E. coli 25922; above 32 µg/mL in the experiment on P. aeruginosa 27853 (setting [3]); 16 µg/mL (≈ 40.5 µM) against S. marscescens 69438; 0.12 µg/mL (≈ 0.303 µM) against K. pneumoniae 418 (418). In addition, the MIC with E. cloacae 908SSi was 32 µg/mL (≈ 80.9 µM); against P. vulgaris 1028 (1028) it was 1 µg/mL (≈ 2.53 µM); in the experiment with S. aureus 6538, 0.5 µg/mL (≈ 1.26 µM); with C. freundii 43, above 32 µg/mL; against H. influenzae 1 it was 0.5 µg/mL (≈ 1.26 µM); against S. aureus 734 MRSA it was above 32 µg/mL. Also, the MIC in the experiment on P. mirabilis 2117 (2117) is 0.12 µg/mL (≈ 0.303 µM); against S. pneumoniae Q19, 0.25 µg/mL (≈ 0.632 µM); against Acinetobacter sp. 51-156 (Acinetobacter), above 32 µg/mL; with C. freundii 902 (902), 16 µg/mL (≈ 40.5 µM); in the experiment with M. catarrhalis RA21 (RA21), 1 µg/mL (≈ 2.53 µM); against E. cloacae 908R (908R), above 32 µg/mL. The MIC against L. monocytogenes BK23 is 16 µg/mL (≈ 40.5 µM); in the experiment on S. agalactiae QK44 it was 0.25 µg/mL (≈ 0.632 µM); in the experiment on E. faecalis 6 (6), 8 µg/mL (≈ 20.2 µM); in the experiment with X. maltophilia 1AC739 (1AC739) it was above 32 µg/mL.
